Common to all, as to assay type: cell-based
Experiment [1] deals with MYB mRNA. Description: Splicing RT-qPCR assay (THP), Table 2A. The settings on record: Table 2A (THP); for AC50: AJ mRNA increase, read-out: MYB AJ (increase in alternative junction mRNA, AC50); for IC50: CJ mRNA decrease, read-out: MYB CJ (decrease in canonical junction mRNA, IC50).
The test system of experiment [2] is HTT mRNA. Put plainly: Splicing RT-qPCR assay (THP), Table 2A. The settings on record: Table 2A (THP); for AC50: AJ mRNA increase, read-out: HTT AJ (increase in alternative junction mRNA, AC50); for IC50: CJ mRNA decrease, read-out: HTT CJ (decrease in canonical junction mRNA, IC50). (In general: Real-time PCR tracks product formation cycle by cycle.)
Experiment [3] deals with SH-SY5Y (human neuroblastoma) cells. Put plainly: Cell viability, Cell Titer Glo 2.0 assay. The settings on record: read-out: Viability SHSY5Y.3 GI50. The method, then: Compounds described herein were screened for toxicity in K562 (human chronic myelogenous leukemia) and SH-SY5Y (human neuroblastoma) cells using a Cell Titer Glo 2.0 assay.
• Promega CellTiter-Glo® 2.0 Cell Viability Assay (cat #G9241) • Corning 384-well TC-treated microplates (cat #3570)
Cells were plated at 500 cells/well (K562 cells) in 45 μL of IMDM supplemented with 10% FBS in a 384-well opaque plate. Wells containing only medium were used as a blank control. Test compounds (e.g., compounds of Formula (I) or (II) were first serially diluted in DMSO then diluted 1:100 with IMDM+10% FBS. The final concentration of DMSO was 0.1% in each well. The cells were incubated for 72 hours at 37° C. and 5% CO2 before assaying with Cell Titer Glo 2.0 reagent.

In experiment [4] the test system is HTT mRNA. Description: Gene panel canonical junction qPCR assay, decrease in CJ mRNA, Table 3. The settings on record: decrease in canonical junction (CJ) mRNA, gene panel qPCR, Table 3. The method, then: (§1) Compounds described herein were used to modulate RNA transcript abundance in cells. The expression of a target mRNA was measured by detecting the formation of an exon-exon junction in the canonical transcript (CJ). A compound mediated exon-inclusion event was detected by observing an increase in formation of a new junction with an alternative exon (AJ). Real-time qPCR assays were used to detect these splicing switches and interrogate the potency of various compounds towards different target genes. A high-throughput real time quantitative PCR (RT-qPCR) assay was developed to measure these two isoforms of the mRNA (CJ and AJ) for exemplary genes, such as HTT, SMN2, and MYB, together with a control housekeeping gene, GAPDH or GUSB or PPIA, used for normalization. Briefly, the A673 or K562 cell line was treated with various compounds described herein (e.g., compounds of Formula (I)). After treatment, the levels of the HTT, MYB, or SMN2 mRNA targets were determined from each sample of cell lysate by cDNA synthesis followed by qPCR.
(§2) The A673 cell line was cultured in DMEM with 10% FBS. Cells were diluted with full growth media and plated in a 96-well plate (15,000 cells in 100 ul media per well). The plate was incubated at 37° C. with 5% CO2 for 24 hours to allow cells to adhere. An 11-point 3-fold serial dilution of the compounds was made in DMSO then diluted in media in an intermediate plate. Compounds were transferred from the intermediate plate to the cell plate with the top dose at a final concentration of 10 uM in the well. Final DMSO concentration was kept at or below 0.25%. The cell plate was returned to the incubator at 37° C. with 5% CO2 for an additional 24 hours.
(§3) The K562 cell line was cultured in IMDM with 10% FBS. For K562, cells were diluted with full growth media and plated in either a 96-well plate (50,000 cells in 50 uL media per well) or a 384-well plate (8,000-40,000 cells in 45 uL media per well). An 11-point 3-fold serial dilution of the compounds were made in DMSO then diluted in media in an intermediate plate. Compound was transferred from the intermediate plate to the cell plate with the top dose at a final concentration of 10 uM in the well. Final DMSO concentration was kept at or below 0.25%. Final volume was 100 uL for 96-well plate and 50 uL for 384-well plate. The cell plate was then placed in an incubator at 37° C. with 5% CO2 for 24 hours.
(§4) The data analysis was performed by first determining the ΔCt vs the housekeeper gene. This ΔCt was then normalized against the DMSO control (ΔΔCt) and converted to RQ (relative quantification) using the 2^(−ΔΔCt) equation. The RQ were then converted to a percentage response by arbitrarily setting an assay window of 3.5 and 4.0 ΔCt for HTT-CJ and MYB-CJ respectively and an assay window of 9 and 3 ΔCt for HTT-AJ and MYB-AJ in 96 well format (50,000 K562 cells/well and 15,000 A673 cells per well) and an assay window of 3 and 4 ΔCt for HTT-CJ and MYB-CJ respectively and an assay window of 5 and 3 ΔCt for HTT-AJ and MYB-AJ respectively in 384 well format (8,000 K562 cells/well example). […] The percentage response was then fitted to the 4 parametric logistic equation to evaluate the concentration dependence of compound treatment. The increase in AJ mRNA is reported as AC50 (compound concentration having 50% response in AJ increase) while the decrease in CJ mRNA levels is reported as IC50 (compound concentration having 50% response in CJ decrease).
(§5) Additional studies were carried out for a larger panel of genes using the protocol provided above. The junction between flanking upstream and downstream exons was used to design canonical junction qPCR assays. At least one of the forward primer, reverse primer or the CY5-labeled 5′ nuclease probe (with 3′ quencher such as ZEN/Iowa Black FQ) was designed to overlap with the exon junction to capture the CJ mRNA transcript. […]

Experiment [5] deals with MYB mRNA. The description is as above. The settings on record: decrease in canonical junction (CJ) mRNA, gene panel qPCR, Table 3. The procedure: as §1, §2, §3, §4, §5

SMILES strings stand for the structures. Where only a bound is given, the exact number is not on record here.

The term AC50 denotes the concentration giving half of the maximal activity seen. What is called IC50 is the concentration that inhibits the measured activity by half. As a reminder, the GI50 is the concentration that inhibits growth by half. In the case of `CCNC1CCN(c2ccc(C(=O)Nc3cc(C(=O)NC)c4nc(C)cn4c3)c3nn(C)cc23)CC1` [Compound 319, 4-(4-(ethylamino)-piperidin-1-yl)-2-methyl-N-(2-methyl-8-(methylcarbamoyl)-imidazo[1,2-a]-pyridin-6-yl)-2H-indazole-7-carboxamide 2,2,2-trifluoroacetate], the AC50 in experiment [1] and in experiment [2] was above 10000 nM each time. Further, the IC50 in experiment [1], in experiment [2], in experiment [4] and in experiment [5] was above 10000 nM in each case. In experiment [3], the GI50 was above 10000 nM.

For `COc1c(NC(=O)c2c(F)cc(N3CCC(NC4CC4)CC3)c3cn(C)nc23)cn2cc(C)nc2c1C#N` [Compound 320, N-(8-cyano-7-methoxy-2-methyl-imidazo[1,2-a]pyridin-6-yl)-4-[4-(cyclopropylamino)-1-piperidyl]-6-fluoro-2-methyl-indazole-7-carboxamide], the AC50 in experiment [1] and in experiment [2] was 100 to 1000 nM in each case. Besides, the concentration for half-maximal inhibition (IC50) in experiment [1], in experiment [2], in experiment [4] and in experiment [5] was 100 to 1000 nM in each case. The GI50 in experiment [3] lay within 100 to 1000 nM.

Take `Cc1cn2cc(NC(=O)c3c(F)cc(N4CCC(NC5CC5)CC4)c4cn(C)nc34)c(OCC3CC3)c(F)c2n1` [Compound 321, 4-[4-(cyclopropylamino)-1-piperidyl]-N-[7-(cyclopropylmethoxy)-8-fluoro-2-methyl-imidazo[1,2-a]-pyridin-6-yl]-6-fluoro-2-methyl-indazole-7-carboxamide]: the AC50 in experiment [1] and in experiment [2] was below 100 nM in each case. The IC50 in experiment [1] was below 100 nM; in experiment [2], 100 to 1000 nM; in experiment [4], 100 to 1000 nM; in experiment [5], below 100 nM. Further, the GI50 in experiment [3] is below 100 nM.

For `Cc1cn2cc(NC(=O)c3ccc(N4CCC(NC5CC5)CC4)c4cn(C)nc34)cc(Oc3ccnnc3)c2n1` [Compound 322, 4-[4-(cyclopropyl-amino)-1-piperidyl]-2-methyl-N-(2-methyl-8-pyridazin-4-yloxy-imidazo[1,2-a]-pyridin-6-yl)-indazole-7-carboxamide], the AC50 in experiment [1] and in experiment [2] was 1000 to 10000 nM in each case. The IC50 in experiment [1], in experiment [2], in experiment [4] and in experiment [5] was 1000 to 10000 nM each time. Also, in experiment [3], the concentration for 50% growth inhibition (GI50) was in the range of 1000 to 10000 nM.

With `CCNC1CCN(c2ccc(C(=O)Nc3cn4cc(C)nc4cc3OC)c3nn(C)cc23)CC1` [Compound 323, 4-[4-(ethylamino)-1-piperidyl]-N-(7-methoxy-2-methyl-imidazo[1,2-a]-pyridin-6-yl)-2-methyl-indazole-7-carboxamide 2,2,2-trifluoroacetate], the half-maximal activity concentration (AC50) in experiment [1] fell in the range of 100 to 1000 nM; in experiment [2], 1000 to 10000 nM. In addition, the IC50 in experiment [1] lay in the range of 100 to 1000 nM; in experiment [2], 1000 to 10000 nM; in experiment [4], 1000 to 10000 nM; in experiment [5] it was 100 to 1000 nM. Besides, the GI50 in experiment [3] was in the range of 1000 to 10000 nM.

On to `CCNC1CCN(c2ccc(C(=O)Nc3cc(OCc4ccccc4)c4nc(C)cn4c3)c3nn(C)cc23)CC1` [Compound 324, N-(8-benzyloxy-2-methylimidazo[1,2-a]pyridin-6-yl)-4-[4-(ethylamino)-1-piperidyl]-2-methyl-indazole-7-carboxamide], for which the concentration at half-maximal activity (AC50) in experiment [1] is 100 to 1000 nM; in experiment [2], above 10000 nM. Moreover, the IC50 in experiment [1] is 1000 to 10000 nM; in experiment [2] it was above 10000 nM; in experiment [4] it was above 10000 nM; in experiment [5], 1000 to 10000 nM. Further, the 50% growth inhibitory concentration (GI50) in experiment [3] is 1000 to 10000 nM.

Turning to `CCNC1CCN(c2ccc(C(=O)Nc3cc(Oc4ccc(Cl)cc4)c4nc(C)cn4c3)c3nn(C)cc23)CC1` [Compound 325, N-[8-(4-chloro-phenoxy)-2-methylimidazo[1,2-a]-pyridin-6-yl]-4-[4-(ethylamino)-1-piperidyl]-2-methyl-indazole-7-carboxamide], the half-maximal activity concentration (AC50) in experiment [1] is below 100 nM; in experiment [2], 1000 to 10000 nM. The IC50 is 100 to 1000 nM in experiment [1], 1000 to 10000 nM in experiment [2], 1000 to 10000 nM in experiment [4] and 100 to 1000 nM in experiment [5]. The 50% growth inhibitory concentration (GI50) in experiment [3] is 100 to 1000 nM.

Consider `CCNC1CCN(c2ccc(C(=O)Nc3cc(Oc4cccc(C#N)c4)c4nc(C)cn4c3)c3nn(C)cc23)CC1` [Compound 326, N-[8-(3-cyano-phenoxy)-2-methylimidazo[1,2-a]pyridin-6-yl]-4-[4-(ethylamino)-1-piperidyl]-2-methyl-indazole-7-carboxamide], for which the AC50 in experiment [1] was in the range of 100 to 1000 nM; in experiment [2], 1000 to 10000 nM. Besides, the IC50 in experiment [1] was 100 to 1000 nM; in experiment [2], 1000 to 10000 nM; in experiment [4], 1000 to 10000 nM; in experiment [5] it was 100 to 1000 nM. Moreover, the GI50 in experiment [3] lay in the range of 1000 to 10000 nM.

`CCNC1CCN(c2ccc(C(=O)Nc3cc(Oc4cccc(C)c4)c4nc(C)cn4c3)c3nn(C)cc23)CC1` [Compound 327, 4-[4-(ethylamino)-1-piperidyl]-2-methyl-N-[2-methyl-8-(3-methylphenoxy)imidazo[1,2-a]pyridin-6-yl]indazole-7-carboxamide]: the AC50 was below 100 nM in experiment [1] and 1000 to 10000 nM in experiment [2]. For the same molecule, the IC50 in experiment [1] was in the range of 100 to 1000 nM; in experiment [2], 1000 to 10000 nM; in experiment [4], 1000 to 10000 nM; in experiment [5], 100 to 1000 nM. In addition, the GI50 in experiment [3] lay in the range of 100 to 1000 nM.

On to `CCNC1CCN(c2ccc(C(=O)Nc3cc(Oc4ccc(C)cc4)c4nc(C)cn4c3)c3nn(C)cc23)CC1` [Compound 328, 4-(4-(ethylamino)-piperidin-1-yl)-2-methyl-N-(2-methyl-8-(p-tolyloxy)-imidazo[1,2-a]pyridin-6-yl)-2H-indazole-7-carboxamide 2,2,2-trifluoroacetate], for which the concentration at half-maximal activity (AC50) is below 100 nM in experiment [1] and 100 to 1000 nM in experiment [2]. In addition, the half-inhibitory concentration (IC50) was below 100 nM in experiment [1], 100 to 1000 nM in experiment [2], 100 to 1000 nM in experiment [4] and below 100 nM in experiment [5]. In experiment [3], the GI50 is 100 to 1000 nM.

The values above are taken from US20260285853A1, “COMPOUNDS AND METHODS FOR MODULATING SPLICING” (REMIX THERAPEUTICS INC., priority 2023, published 2026).
